According to patent publication US20260365653A1, “IRREVERSIBLE MUTEGFR INHIBITORS” (Bayer Aktiengesellschaft, priority 2022, published 2026):
Where “and” joins values, the source holds several entries; their conditions need not be identical. Identical values can stand only once.

Tests used:
BA/F3 (insSVD) cells = assay: Ba/F3-EGFR-insSVD cell survival assay (Cell Titer-Glo); assay type: cell-based
In short: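 Ba/F3 cells stably expressing retroviral EGFR-insSVD or insSVD T790M, grown without IL-3 on 10 ng/ml EGF, 4000 cells/well. Compound pinned in, 48 h at 37° C. Viability by CellTiter-Glo luminescence.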

[1] = target: T1, mutEGFR (D770_N771insNPG, T790) (Homo sapiens, UniProt P00533, INS770NPG/T790M); assay: mutEGFR (D770_N771insNPG, T790) kinase assay; assay type: biochemical
T1 construct: exact insNPG construct not described; in-house EGFR proteins were N-terminal GST fusions from baculovirus/insect cells (borders R669-A1210 given only for WT, insSVD, insASV)
From the text: The different EGFR proteins used in the biochemical kinase activity inhibition assays were generated inhouse by expression in insect cells using Baculo Virus system and subsequent purification as described in the following paragraphs.
The cDNAs encoding the various protein sequences from human EGFR human (P00533) were optimized for expression in eukaryotic cells and synthesized by the GeneArt Technology at Life Technologies.

[2] = target: T2, mutEGFR (D770_N771insSVD) (Homo sapiens, UniProt P00533, DUP768-770); assay: Exon20-Mutant-EGFR (D770_N771insSVD) kinase assay (TR-FRET); assay type: biochemical
T2 construct: GST-EGFR #3 (SVD between D770 and N771); made in house; host or cells: Sf9 insect cells (baculovirus)

[3] = Table 3a, cell survival, Cell Titer-Glo, with 10 ng/ml EGF, without IL-3, 48 h
[4] = mutEGFR (D770_N771insSVD) kinase assay IC50, Table 2a, D770_N771insSVD, 2 mM ATP
[5] = Mus musculus, BaF3, 48 h, Table 3a, cell survival, Cell Titer-Glo, with 10 ng/ml EGF, without IL-3
[6] = Mus musculus, BaF3, 48 h, Table 3b, Ba/F3 EGFR-insSVD
[7] = Table 2b (from US Priority Patent Application), mutEGFR D770_N771insNPG
[8] = mutEGFR (D770_N771insSVD) kinase assay IC50, Table 2b (from US Priority Patent Application), mutEGFR D770_N771insSVD

T2 sequence (P00533 with tags, fused parts or gaps DUP768-770): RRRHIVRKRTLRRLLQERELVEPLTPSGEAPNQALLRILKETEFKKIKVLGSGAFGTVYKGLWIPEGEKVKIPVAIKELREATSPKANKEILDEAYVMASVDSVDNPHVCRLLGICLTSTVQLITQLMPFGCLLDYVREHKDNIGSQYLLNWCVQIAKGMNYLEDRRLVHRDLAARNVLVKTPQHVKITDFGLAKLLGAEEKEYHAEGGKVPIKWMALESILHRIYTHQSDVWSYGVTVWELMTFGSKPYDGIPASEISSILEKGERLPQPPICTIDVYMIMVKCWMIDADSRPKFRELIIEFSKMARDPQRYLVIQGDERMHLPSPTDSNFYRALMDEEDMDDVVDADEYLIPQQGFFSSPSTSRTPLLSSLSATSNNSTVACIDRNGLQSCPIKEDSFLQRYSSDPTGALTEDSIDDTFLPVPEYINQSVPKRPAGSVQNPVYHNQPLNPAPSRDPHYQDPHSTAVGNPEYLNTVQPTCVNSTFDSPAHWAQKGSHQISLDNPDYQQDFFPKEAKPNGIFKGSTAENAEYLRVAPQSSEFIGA
T1 sequence (P00533 with tags, fused parts or gaps INS770NPG/T790M limits assumed): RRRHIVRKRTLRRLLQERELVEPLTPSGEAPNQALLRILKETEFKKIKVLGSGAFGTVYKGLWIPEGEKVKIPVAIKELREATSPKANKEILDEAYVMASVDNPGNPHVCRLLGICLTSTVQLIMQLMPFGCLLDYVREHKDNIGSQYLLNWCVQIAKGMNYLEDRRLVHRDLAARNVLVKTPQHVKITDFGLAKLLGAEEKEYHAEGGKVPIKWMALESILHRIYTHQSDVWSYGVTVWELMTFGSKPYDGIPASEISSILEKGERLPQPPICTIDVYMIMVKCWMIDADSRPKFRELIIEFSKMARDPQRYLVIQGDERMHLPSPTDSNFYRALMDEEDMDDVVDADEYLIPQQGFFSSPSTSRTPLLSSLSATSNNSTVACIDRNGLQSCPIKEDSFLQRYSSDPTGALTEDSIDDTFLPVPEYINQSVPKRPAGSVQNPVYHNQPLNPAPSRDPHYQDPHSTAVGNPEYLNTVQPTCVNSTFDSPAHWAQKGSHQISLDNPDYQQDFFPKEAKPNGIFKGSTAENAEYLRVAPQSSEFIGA

| Compound | IC50 ([1]; Table 2a, D770_N771insNPG) | IC50 [2, 4] | IC50 [1, 7] | IC50 [2, 8] | IC50 (BA/F3 (insSVD) cells; [3]) | IC50 (BA/F3 (insSVD) cells; [5]) | IC50 (BA/F3 (insSVD) cells; [6]) |
| --- | --- | --- | --- | --- | --- | --- | --- |
| C=CC(=O)N1CCn2nc(-c3ccc(Cl)cc3F)c(-c3ccncc3)c2C1C (single isomer, unassigned; isomer 2) [Example 279, 1-[2-(4-chloro-2-fluorophenyl)-4-methyl-3-(pyridin-4-yl)-6,7-dihydropyrazolo[1,5-a]pyrazin-5(4H)-yl]prop-2-en-1-one (isomer 2)] | 62.2 nM | 50.6 nM | – | – | 429 nM | – | – |
| CC1c2c(-c3ccncc3)c(-c3ccc(Cl)cc3F)nn2CCN1C(=O)/C=C/CN(C)C (single isomer, unassigned; isomer 2) [Example 286, (2E)-1-[2-(4-chloro-2-fluorophenyl)-4-methyl-3-(pyridin-4-yl)-6,7-dihydropyrazolo[1,5-a]pyrazin-5(4H)-yl]-4-(dimethylamino)but-2-en-1-one (isomer 2)] | 95.7 nM | 71 nM | – | – | 843 nM | – | – |
| C=CC(=O)N1CCn2nc(-c3ccc(Cl)c(C)c3)c(-c3ccncc3)c2C1 [Example 2, 1-[2-(4-chloro-3-methylphenyl)-3-(pyridin-4-yl)-6,7-dihydropyrazolo[1,5-a]pyrazin-5(4H)-yl]prop-2-en-1-one] | 0.146 nM | 0.105 nM and < 0.0725 nM | 0.146 nM | < 0.0725 nM and 0.105 nM | – | 20.6 nM | 20.6 nM |
| C=CC(=O)N1CCn2nc(-c3cccc(F)c3)c(-c3ccncc3)c2C1 [Example 4, 1-[2-(3-fluorophenyl)-3-(pyridin-4-yl)-6,7-dihydropyrazolo[1,5-a]pyrazin-5(4H)-yl]prop-2-en-1-one] | 1.47 nM | 1.45 nM | 1.47 nM | 1.45 nM | – | 50.5 nM | 50.5 nM |
| O=C(Nc1cc(-c2c(-c3ccc(F)cc3)nn3c2CN(C(=O)C2CO2)CC3)ccn1)C1CC1 (stereo not shown) [Example 9, N-{4-[2-(4-fluorophenyl)-5-(oxirane-2-carbonyl)-4,5,6,7-tetrahydropyrazolo[1,5-a]pyrazin-3-yl]pyridin-2-yl}cyclopropanecarboxamide] | 104 nM | 64.5 nM | 104 nM | 64.5 nM | – | 2040 nM | 2040 nM |
| C=CC(=O)N1CCn2nc(-c3ccc(F)cc3)c(-c3ccnc(OC)c3)c2C1 [Example 11, 1-[2-(4-fluorophenyl)-3-(2-methoxypyridin-4-yl)-6,7-dihydropyrazolo[1,5-a]pyrazin-5(4H)-yl]prop-2-en-1-one] | 43.8 nM | 29.6 nM | 43.8 nM | 29.6 nM | – | 1560 nM | 1560 nM |
| C#CC(=O)N1CCn2nc(-c3ccc(F)cc3)c(-c3ccncc3)c2C1 [Example 13, 1-[2-(4-fluorophenyl)-3-(pyridin-4-yl)-6,7-dihydropyrazolo[1,5-a]pyrazin-5(4H)-yl]prop-2-yn-1-one] | 1.26 nM | 0.807 nM | 1.26 nM | 0.807 nM | – | 909 nM | 909 nM |
| CC#CC(=O)N1CCn2nc(-c3ccc(F)cc3)c(-c3ccncc3)c2C1 [Example 16, 1-[2-(4-fluorophenyl)-3-(pyridin-4-yl)-6,7-dihydropyrazolo[1,5-a]pyrazin-5(4H)-yl]but-2-yn-1-one] | 76.6 nM | 55.2 nM | 76.6 nM | 55.2 nM | – | 774 nM | 774 nM |
| C=CC(=O)N1CCn2nc(Nc3ccc(F)cc3)c(-c3ccncc3)c2C1 [Example 19, 1-[2-(4-fluoroanilino)-3-(pyridin-4-yl)-6,7-dihydropyrazolo[1,5-a]pyrazin-5(4H)-yl]prop-2-en-1-one] | 210 nM | 25.9 nM | – | 25.9 nM | – | 823 nM | 823 nM |
| C=C(C)C(=O)N1CCn2nc(-c3ccc(F)cc3)c(-c3ccncc3)c2C1 [Example 24, 1-[2-(4-fluorophenyl)-3-(pyridin-4-yl)-6,7-dihydropyrazolo[1,5-a]pyrazin-5(4H)-yl]-2-methylprop-2-en-1-one] | 14600 nM and > 20000 nM | 1150 nM | – | 1150 nM | – | 9980 nM | – |

Continued, in another order:

| IC50 ([1]; Table 2a, D770_N771insNPG) | IC50 [2, 4] | IC50 [1, 7] | IC50 [2, 8] | Compound | IC50 (BA/F3 (insSVD) cells; [3]) | IC50 (BA/F3 (insSVD) cells; [5]) | IC50 (BA/F3 (insSVD) cells; [6]) |
| --- | --- | --- | --- | --- | --- | --- | --- |
| 0.765 nM | 0.393 nM | 0.765 nM | 0.393 nM | CN(C)C/C=C/C(=O)N1CCn2nc(-c3ccc(F)cc3)c(-c3ccnc(NC(=O)C4CC4)c3)c2C1 [Example 8, N-(4-{5-[(2E)-4-(dimethylamino)but-2-enoyl]-2-(4-fluorophenyl)-4,5,6,7-tetrahydropyrazolo[1,5-a]pyrazin-3-yl}pyridin-2-yl)cyclopropanecarboxamide] | – | 20.4 nM | 20.4 nM |
| 84.2 nM | 37.1 nM | 84.2 nM | 37.1 nM | C=CC(=O)N1CCn2nc(-c3ccc(F)cc3)c(-c3ccncc3OC)c2C1 [Example 12, 1-[2-(4-fluorophenyl)-3-(3-methoxypyridin-4-yl)-6,7-dihydropyrazolo[1,5-a]pyrazin-5(4H)-yl]prop-2-en-1-one] | – | 359 nM | 359 nM |
| 1.08 nM | 0.729 nM | 1.08 nM | 0.729 nM | CN(C)C/C=C/C(=O)N1CCn2nc(-c3ccc(F)cc3)c(-c3ccncc3)c2C1 [Example 15, (2E)-4-(dimethylamino)-1-[2-(4-fluorophenyl)-3-(pyridin-4-yl)-6,7-dihydropyrazolo[1,5-a]pyrazin-5(4H)-yl]but-2-en-1-one] | – | 86.9 nM | 86.9 nM |
| 85.8 nM | 55.7 nM | 85.8 nM | 55.7 nM | C=C(F)C(=O)N1CCn2nc(-c3ccc(F)cc3)c(-c3ccncc3)c2C1 [Example 17, 2-fluoro-1-[2-(4-fluorophenyl)-3-(pyridin-4-yl)-6,7-dihydropyrazolo[1,5-a]pyrazin-5(4H)-yl]prop-2-en-1-one] | – | 1150 nM | 1150 nM |
| 9.13 nM | 3.54 nM | – | 3.54 nM | C=CC(=O)N1CCn2nc(-c3ccc(F)cc3)c(-c3ccnc(Nc4ccccc4)c3)c2C1 [Example 20, 1-[3-(2-anilinopyridin-4-yl)-2-(4-fluorophenyl)-6,7-dihydropyrazolo[1,5-a]pyrazin-5(4H)-yl]prop-2-en-1-one] | – | 617 nM | 617 nM |
| 4.45 nM | 1.17 nM | – | 1.17 nM | CN(C)C/C=C/C(=O)N1CCn2nc(-c3ccc(F)cc3)c(-c3ccnc(Nc4ccccc4)c3)c2C1 [Example 21, (2E)-1-[3-(2-anilinopyridin-4-yl)-2-(4-fluorophenyl)-6,7-dihydropyrazolo[1,5-a]pyrazin-5(4H)-yl]-4-(dimethylamino)but-2-en-1-one] | – | 101 nM | 101 nM |
| 3.34 nM | 5.12 nM | – | 5.12 nM | C=CC(=O)N1CCn2nc(-c3ccc(F)cc3)c(-c3ccnc4[nH]ccc34)c2C1 [Example 22, 1-[2-(4-fluorophenyl)-3-(1H-pyrrolo[2,3-b]pyridin-4-yl)-6,7-dihydropyrazolo[1,5-a]pyrazin-5(4H)-yl]prop-2-en-1-one] | – | 62 nM | 62 nM |
| 804 nM | 208 nM | – | 208 nM | C/C=C/C(=O)N1CCn2nc(-c3ccc(F)cc3)c(-c3ccncc3)c2C1 [Example 23, (2E)-1-[2-(4-fluorophenyl)-3-(pyridin-4-yl)-6,7-dihydropyrazolo[1,5-a]pyrazin-5(4H)-yl]but-2-en-1-one] | – | 3850 nM | – |
| 2.12 nM | 0.6 nM | – | – | CN(C)C/C=C/C(=O)N1CCn2nc(-c3ccc(Cl)c(F)c3)c(-c3ccncc3)c2C1 [Example 25, (2E)-1-[2-(4-chloro-3-fluorophenyl)-3-(pyridin-4-yl)-6,7-dihydropyrazolo[1,5-a]pyrazin-5(4H)-yl]-4-(dimethylamino)but-2-en-1-one] | – | 62.3 nM | – |
| 3.3 nM | 1.26 nM | – | – | CN(C)C/C=C/C(=O)N1CCn2nc(-c3ccc(Cl)cc3F)c(-c3ccncc3)c2C1 [Example 26, (2E)-1-[2-(4-chloro-2-fluorophenyl)-3-(pyridin-4-yl)-6,7-dihydropyrazolo[1,5-a]pyrazin-5(4H)-yl]-4-(dimethylamino)but-2-en-1-one] | – | 70.3 nM | – |
| 3.02 nM | 3.77 nM | – | – | COc1ccc(-c2nn3c(c2-c2ccncc2)CN(C(=O)/C=C/CN(C)C)CC3)cc1Cl [Example 27, (2E)-1-[2-(3-chloro-4-methoxyphenyl)-3-(pyridin-4-yl)-6,7-dihydropyrazolo[1,5-a]pyrazin-5(4H)-yl]-4-(dimethylamino)but-2-en-1-one] | – | 679 nM | – |
| 35.2 nM | 70.2 nM | – | – | COc1ccccc1-c1nn2c(c1-c1ccncc1)CN(C(=O)/C=C/CN(C)C)CC2 [Example 28, (2E)-4-(dimethylamino)-1-[2-(2-methoxyphenyl)-3-(pyridin-4-yl)-6,7-dihydropyrazolo[1,5-a]pyrazin-5(4H)-yl]but-2-en-1-one] | – | 3980 nM | – |
